From patent publication US11945822B2, “Pyrazolo-triazine and/or pyrazolo-pxrimidine derivatives as selective inhibitor of cyclin dependent kinase” (QURIENT CO., LTD., priority 2018, dated 2024)

The molecules below were run on H460 (assay: Cellular H460 viability assay (CellTiter-Glo, 72 hours)). Settings: Homo sapiens, NCI-H460.
Type: cell-based
Summary of the method: (§1)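 72 h treatment, 37 °C, 5% CO2; DMSO ctrl, final <0.1%; CellTiter-Glo luminescence; n=2.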

IC50 [nM]	Structure (SMILES)
1000 to 10000	CC(C)c1cnn2c(NCc3c(-n4cccn4)cccc3C(F)(F)F)nc(N3CCC(N)CC3)nc12 [Compound 46]
< 1000	CC(C)c1cnn2c(NCc3ccccc3OC3CCN(C)CC3)nc(N3CCC(N)CC3)nc12 [Compound 66]
< 1000	CC(C)c1cnn2c(NCc3ccccc3-n3cc4ccc(C(F)(F)F)cc4n3)nc(N3CCC(N)CC3)nc12 [Compound 104]

Each molecule was assayed against T1, CDK2/Cyclin A (Homo sapiens, UniProt P24941) (assay: Enzymatic assay for CDK2 (FRET based LANCE Ultra kinase assay)). Settings: read-out: CDK2 enzymatic activity (IC50 range).
T1 construct: purchased Invitrogen PV6290
Type: biochemical
Summary of the method: (§2)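 LANCE Ultra TR-FRET: ULight-MBP peptide (68 nM) with ATP at Km, […], 60 min at 23° C. EDTA plus Eu-anti-phospho-MBP added, another 60 min, then 665/615 nm emission read. Compounds tested as 8-dose 4-fold DMSO dilutions.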

IC50 [nM]	Structure (SMILES)
> 1000	CC(C)c1cnn2c(NCc3c(-n4cccn4)cccc3C(F)(F)F)nc(N3CCC(N)CC3)nc12 [Compound 46]
> 1000	CC(C)c1cnn2c(NCc3ccccc3OC3CCN(C)CC3)nc(N3CCC(N)CC3)nc12 [Compound 66]
> 1000	CC(C)c1cnn2c(NCc3ccccc3-n3cc4ccc(C(F)(F)F)cc4n3)nc(N3CCC(N)CC3)nc12 [Compound 104]

What follows are molecules tested against T2, CDK5/p25 (Homo sapiens, UniProt Q00535) (assay: Enzymatic assay for CDK5 (FRET based LANCE Ultra kinase assay)). Settings: read-out: CDK5 enzymatic activity (IC50 range).
T2 construct: purchased Invitrogen PR8543B
Type: biochemical
Summary of the method: as §2

T2 sequence (Q00535 whole entry): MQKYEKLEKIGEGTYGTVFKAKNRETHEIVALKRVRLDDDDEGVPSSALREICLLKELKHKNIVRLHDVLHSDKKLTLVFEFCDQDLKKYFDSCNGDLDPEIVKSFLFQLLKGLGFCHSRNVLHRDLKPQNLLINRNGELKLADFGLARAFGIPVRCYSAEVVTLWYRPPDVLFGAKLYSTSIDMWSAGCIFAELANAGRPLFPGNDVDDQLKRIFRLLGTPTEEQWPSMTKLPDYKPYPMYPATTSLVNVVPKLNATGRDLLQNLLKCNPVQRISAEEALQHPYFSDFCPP
T2 sequence (Q15078 99-307 partner limits assumed): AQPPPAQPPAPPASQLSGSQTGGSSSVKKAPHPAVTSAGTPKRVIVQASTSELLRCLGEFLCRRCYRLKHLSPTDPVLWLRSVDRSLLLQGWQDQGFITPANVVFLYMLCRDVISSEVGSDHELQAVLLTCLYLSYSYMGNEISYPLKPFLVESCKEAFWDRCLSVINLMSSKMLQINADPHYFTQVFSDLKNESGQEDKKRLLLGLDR

IC50 [nM]	Structure (SMILES)
> 1000	CC(C)c1cnn2c(NCc3c(-n4cccn4)cccc3C(F)(F)F)nc(N3CCC(N)CC3)nc12 [Compound 46]
100 to 1000	CC(C)c1cnn2c(NCc3ccccc3OC3CCN(C)CC3)nc(N3CCC(N)CC3)nc12 [Compound 66]
100 to 1000	CC(C)c1cnn2c(NCc3ccccc3-n3cc4ccc(C(F)(F)F)cc4n3)nc(N3CCC(N)CC3)nc12 [Compound 104]

What follows are molecules tested on MV4-11 (assay: Cellular MV4-11 viability assay (CellTiter-Glo, 72 hours)). Settings: Homo sapiens.
Type: cell-based
Summary of the method: as §1

IC50 [nM]	Structure (SMILES)
1000 to 10000	CC(C)c1cnn2c(NCc3c(-n4cccn4)cccc3C(F)(F)F)nc(N3CCC(N)CC3)nc12 [Compound 46]
< 1000	CC(C)c1cnn2c(NCc3ccccc3OC3CCN(C)CC3)nc(N3CCC(N)CC3)nc12 [Compound 66]
< 1000	CC(C)c1cnn2c(NCc3ccccc3-n3cc4ccc(C(F)(F)F)cc4n3)nc(N3CCC(N)CC3)nc12 [Compound 104]

What follows are molecules tested on HCT116 (assay: Cellular HCT116 viability assay (CellTiter-Glo, 72 hours)). Settings: Homo sapiens, HCT-116.
Type: cell-based
Summary of the method: as §1

IC50 [nM]	Structure (SMILES)
< 1000	CC(C)c1cnn2c(NCc3ccccc3OC3CCN(C)CC3)nc(N3CCC(N)CC3)nc12 [Compound 66]
< 1000	CC(C)c1cnn2c(NCc3ccccc3-n3cc4ccc(C(F)(F)F)cc4n3)nc(N3CCC(N)CC3)nc12 [Compound 104]

What follows are molecules tested on MOLT-4 (assay: Cellular MOLT-4 viability assay (CellTiter-Glo, 72 hours)). Settings: Homo sapiens, MOLT4 viability assay.
Type: cell-based
Summary of the method: as §1

IC50 [nM]	Structure (SMILES)
1000 to 10000	CC(C)c1cnn2c(NCc3c(-n4cccn4)cccc3C(F)(F)F)nc(N3CCC(N)CC3)nc12 [Compound 46]
1000 to 10000	CC(C)c1cnn2c(NCc3ccccc3OC3CCN(C)CC3)nc(N3CCC(N)CC3)nc12 [Compound 66]
1000 to 10000	CC(C)c1cnn2c(NCc3ccccc3-n3cc4ccc(C(F)(F)F)cc4n3)nc(N3CCC(N)CC3)nc12 [Compound 104]

What follows are molecules tested against T3, CDK1/Cyclin B (Homo sapiens, UniProt P06493) (assay: Enzymatic assay for CDK1 (FRET based LANCE Ultra kinase assay)). Settings: read-out: CDK1 enzymatic activity (IC50 range).
T3 construct: purchased Invitrogen PR4768C
Type: biochemical
Summary of the method: as §2

T3 sequence (P06493 whole entry): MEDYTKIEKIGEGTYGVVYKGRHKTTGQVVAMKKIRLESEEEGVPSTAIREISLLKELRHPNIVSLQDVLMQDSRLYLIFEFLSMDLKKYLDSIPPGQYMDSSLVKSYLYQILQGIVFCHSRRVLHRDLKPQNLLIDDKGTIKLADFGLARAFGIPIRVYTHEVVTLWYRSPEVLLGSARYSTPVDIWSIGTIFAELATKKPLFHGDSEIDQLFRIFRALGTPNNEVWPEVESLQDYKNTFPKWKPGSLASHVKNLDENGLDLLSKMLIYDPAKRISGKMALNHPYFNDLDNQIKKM
T3 sequence (P14635 whole entry partner): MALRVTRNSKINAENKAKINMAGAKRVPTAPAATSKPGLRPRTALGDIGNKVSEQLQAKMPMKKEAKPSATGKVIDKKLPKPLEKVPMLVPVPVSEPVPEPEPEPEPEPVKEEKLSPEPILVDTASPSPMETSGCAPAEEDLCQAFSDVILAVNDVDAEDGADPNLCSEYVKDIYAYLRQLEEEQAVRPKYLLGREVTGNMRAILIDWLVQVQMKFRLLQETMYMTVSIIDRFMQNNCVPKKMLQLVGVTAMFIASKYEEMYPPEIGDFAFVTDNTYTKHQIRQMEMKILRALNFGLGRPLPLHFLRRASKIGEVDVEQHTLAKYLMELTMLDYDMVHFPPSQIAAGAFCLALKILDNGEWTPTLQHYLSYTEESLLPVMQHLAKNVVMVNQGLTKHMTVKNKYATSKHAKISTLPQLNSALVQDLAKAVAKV

IC50 [nM]	Structure (SMILES)
> 1000	CC(C)c1cnn2c(NCc3c(-n4cccn4)cccc3C(F)(F)F)nc(N3CCC(N)CC3)nc12 [Compound 46]
> 1000	CC(C)c1cnn2c(NCc3ccccc3OC3CCN(C)CC3)nc(N3CCC(N)CC3)nc12 [Compound 66]
> 1000	CC(C)c1cnn2c(NCc3ccccc3-n3cc4ccc(C(F)(F)F)cc4n3)nc(N3CCC(N)CC3)nc12 [Compound 104]

These molecules were tested against T4, CDK7/Cyclin H/MNAT1 (Homo sapiens, UniProt P50613) (assay: Enzymatic assay for CDK7 (FRET based LANCE Ultra kinase assay)). Settings: CDK7 over CDK1.
T4 construct: purchased Invitrogen PR6749B
Type: biochemical
Summary of the method: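 LANCE Ultra TR-FRET kinase assay using a ULight-labeled peptide substrate and a Eu-labeled anti-phospho antibody, with ATP at its Km. Purified CDK/cyclin complex was added to compound after brief centrifugation.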

T4 sequence (P50613 whole entry): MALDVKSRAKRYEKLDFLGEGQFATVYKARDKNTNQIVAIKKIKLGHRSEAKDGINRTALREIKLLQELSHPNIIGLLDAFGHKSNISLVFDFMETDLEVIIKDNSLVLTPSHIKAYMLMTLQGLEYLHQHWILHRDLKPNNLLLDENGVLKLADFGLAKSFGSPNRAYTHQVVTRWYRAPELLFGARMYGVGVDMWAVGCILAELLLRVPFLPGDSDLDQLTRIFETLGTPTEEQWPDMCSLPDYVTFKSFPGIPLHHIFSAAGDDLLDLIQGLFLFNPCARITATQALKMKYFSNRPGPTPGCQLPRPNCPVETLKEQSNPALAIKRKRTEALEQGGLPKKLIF
T4 sequence (P51946 whole entry partner): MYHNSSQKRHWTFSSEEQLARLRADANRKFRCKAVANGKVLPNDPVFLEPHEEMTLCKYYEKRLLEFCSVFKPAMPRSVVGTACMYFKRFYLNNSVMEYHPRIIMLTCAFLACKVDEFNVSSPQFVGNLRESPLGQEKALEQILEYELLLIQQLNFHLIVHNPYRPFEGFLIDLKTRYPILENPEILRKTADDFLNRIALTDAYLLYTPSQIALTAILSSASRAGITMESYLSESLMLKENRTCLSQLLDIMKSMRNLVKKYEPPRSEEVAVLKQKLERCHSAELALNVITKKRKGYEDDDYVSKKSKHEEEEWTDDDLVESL
T4 sequence (P51948 whole entry partner): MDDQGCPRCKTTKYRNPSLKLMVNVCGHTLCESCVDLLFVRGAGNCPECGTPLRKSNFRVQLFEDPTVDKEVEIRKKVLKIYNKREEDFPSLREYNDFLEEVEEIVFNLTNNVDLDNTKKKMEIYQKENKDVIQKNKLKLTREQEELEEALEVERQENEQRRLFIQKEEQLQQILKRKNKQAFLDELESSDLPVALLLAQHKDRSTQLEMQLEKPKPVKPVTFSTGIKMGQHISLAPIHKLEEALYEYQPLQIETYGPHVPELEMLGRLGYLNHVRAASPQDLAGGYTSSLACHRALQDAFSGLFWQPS

CDK1/CDK7: Selectivity of CDK7 inhibition over CDK1 inhibition	Structure (SMILES)
A (A=greater than 200 fold)	CC(C)c1cnn2c(NCc3c(-n4cccn4)cccc3C(F)(F)F)nc(N3CCC(N)CC3)nc12 [Compound 46]
A (A=greater than 200 fold)	CC(C)c1cnn2c(NCc3ccccc3OC3CCN(C)CC3)nc(N3CCC(N)CC3)nc12 [Compound 66]
A (A=greater than 200 fold)	CC(C)c1cnn2c(NCc3ccccc3-n3cc4ccc(C(F)(F)F)cc4n3)nc(N3CCC(N)CC3)nc12 [Compound 104]

Same assay, conditions: CDK7 over CDK2

CDK2/CDK7: Selectivity of CDK7 inhibition over CDK2 inhibition	Structure (SMILES)
A (A=greater than 200 fold)	CC(C)c1cnn2c(NCc3c(-n4cccn4)cccc3C(F)(F)F)nc(N3CCC(N)CC3)nc12 [Compound 46]
A (A=greater than 200 fold)	CC(C)c1cnn2c(NCc3ccccc3OC3CCN(C)CC3)nc(N3CCC(N)CC3)nc12 [Compound 66]
A (A=greater than 200 fold)	CC(C)c1cnn2c(NCc3ccccc3-n3cc4ccc(C(F)(F)F)cc4n3)nc(N3CCC(N)CC3)nc12 [Compound 104]

Same assay, conditions: CDK7 over CDK5

CDK5/CDK7: Selectivity of CDK7 inhibition over CDK5 inhibition	Structure (SMILES)
A (A=greater than 200 fold)	CC(C)c1cnn2c(NCc3c(-n4cccn4)cccc3C(F)(F)F)nc(N3CCC(N)CC3)nc12 [Compound 46]
A (A=greater than 200 fold)	CC(C)c1cnn2c(NCc3ccccc3OC3CCN(C)CC3)nc(N3CCC(N)CC3)nc12 [Compound 66]

Structure (SMILES)	CDK5/CDK7: Selectivity of CDK7 inhibition over CDK5 inhibition
CC(C)c1cnn2c(NCc3ccccc3-n3cc4ccc(C(F)(F)F)cc4n3)nc(N3CCC(N)CC3)nc12 [Compound 104]	B (B=less than 200 fold, but greater than 20 fold)

Same assay, conditions: read-out: CDK7 enzymatic activity (IC50 range)

IC50 [nM]	Structure (SMILES)
< 100	CC(C)c1cnn2c(NCc3c(-n4cccn4)cccc3C(F)(F)F)nc(N3CCC(N)CC3)nc12 [Compound 46]
< 100	CC(C)c1cnn2c(NCc3ccccc3OC3CCN(C)CC3)nc(N3CCC(N)CC3)nc12 [Compound 66]
< 100	CC(C)c1cnn2c(NCc3ccccc3-n3cc4ccc(C(F)(F)F)cc4n3)nc(N3CCC(N)CC3)nc12 [Compound 104]

Each molecule was assayed on RPMI-8226 (assay: Cellular RPMI-8226 viability assay (CellTiter-Glo, 72 hours)). Settings: Homo sapiens.
Type: cell-based
Summary of the method: as §1

IC50 [nM]	Structure (SMILES)
1000 to 10000	CC(C)c1cnn2c(NCc3c(-n4cccn4)cccc3C(F)(F)F)nc(N3CCC(N)CC3)nc12 [Compound 46]
1000 to 10000	CC(C)c1cnn2c(NCc3ccccc3OC3CCN(C)CC3)nc(N3CCC(N)CC3)nc12 [Compound 66]
< 1000	CC(C)c1cnn2c(NCc3ccccc3-n3cc4ccc(C(F)(F)F)cc4n3)nc(N3CCC(N)CC3)nc12 [Compound 104]

What follows are molecules tested on MM.1S (assay: Cellular MM.1S viability assay (CellTiter-Glo, 72 hours)). Settings: Homo sapiens, MM1.S.
Type: cell-based
Description: Human T-cell acute lymphoblastic leukemia cell line, MOLT-4 (ATCC, Cat #CRL-1582), Human multiple myeloma cell line, RPMI-8226 (Invitrogen, Cat #22400-089) and MM.1S (ATCC, Cat #CRL-2974), NSCLC (Non-small cell lung cancer) cell line H460 (ATCC, Cat #HTB-177), Human colon colorectal carcinoma cell line HCT116 (ATCC, Cat #CCL-247), Human acute monocytic leukemia cell line MV4-11 (ATCC, Cat #CRL-9591), OVCAR-3 (ATCC, Cat #HTB-161) and A2780 (ECACC, Cat #93112519) were obtained from ATCC. Cells were grown in RPMI-1640 media (Invitrogen, Cat #22400-089) supplemented with 10% FBS (Invitrogen, Cat #10099141) and 1% penicillin/streptomycin (Invitrogen, Cat #15070063) and cultured at 37° C., 5% CO2 in a humidified chamber. All cell lines were routinely tested for mycoplasma.
The effect of the CDK7 inhibitor to inhibit the growth of target cancer cells was evaluated through the 72 hours time period of viability assay. Briefly, the candidate cell line ware plated in 96 well plate at the following density of cells respectively. 1×10^4 cells/well for MOLT-4, RPMI-8226, MV4-11 and MM.1S, 5×10^3 for H460, HCT116 and OVCAR-3 and IX 10^3 for A2780. After 24 hours, the cells were treated with various concentrations of the compound (ranging from 0.0015 uM to 10 uM). DMSO solvent without compound served as a control and final DMSO concentration less than 0.1%. After 72 hours of incubation at 37° C., 5% CO2 incubator, cells were analyzed for the viability using the CellTiter-Glo Luminescent Cell Viability Assay (Promega, Cat #G7570). All viability assays were performed in duplicate and Luminescence was read using an Envision (Perkin Elmer, USA). Data was analyzed using XLfit software.

IC50 [nM]	Structure (SMILES)
1000 to 10000	CC(C)c1cnn2c(NCc3c(-n4cccn4)cccc3C(F)(F)F)nc(N3CCC(N)CC3)nc12 [Compound 46]
≤ 1000	CC(C)c1cnn2c(NCc3ccccc3OC3CCN(C)CC3)nc(N3CCC(N)CC3)nc12 [Compound 66]
≤ 1000	CC(C)c1cnn2c(NCc3ccccc3-n3cc4ccc(C(F)(F)F)cc4n3)nc(N3CCC(N)CC3)nc12 [Compound 104]
